We go through 11 compounds from ChEMBL document CHEMBL2346534, “Design, synthesis and in vitro anti-proliferative activity of 4,6-quinazolinediamines as potent EGFR-TK inhibitors” (Eur J Med Chem, 2013).

Usually inhibition stands for the percentage by which the read-out fell short of the control. The low end stands for a response near the control, the high end for a response far below the control.
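Also: EGFR tyrosine kinase activity on a poly(Glu,Tyr) substrate, read out by Kinase-Glo Plus luminescence after a 40 min reaction.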

Epidermal growth factor receptor, sequence (P00533 whole entry): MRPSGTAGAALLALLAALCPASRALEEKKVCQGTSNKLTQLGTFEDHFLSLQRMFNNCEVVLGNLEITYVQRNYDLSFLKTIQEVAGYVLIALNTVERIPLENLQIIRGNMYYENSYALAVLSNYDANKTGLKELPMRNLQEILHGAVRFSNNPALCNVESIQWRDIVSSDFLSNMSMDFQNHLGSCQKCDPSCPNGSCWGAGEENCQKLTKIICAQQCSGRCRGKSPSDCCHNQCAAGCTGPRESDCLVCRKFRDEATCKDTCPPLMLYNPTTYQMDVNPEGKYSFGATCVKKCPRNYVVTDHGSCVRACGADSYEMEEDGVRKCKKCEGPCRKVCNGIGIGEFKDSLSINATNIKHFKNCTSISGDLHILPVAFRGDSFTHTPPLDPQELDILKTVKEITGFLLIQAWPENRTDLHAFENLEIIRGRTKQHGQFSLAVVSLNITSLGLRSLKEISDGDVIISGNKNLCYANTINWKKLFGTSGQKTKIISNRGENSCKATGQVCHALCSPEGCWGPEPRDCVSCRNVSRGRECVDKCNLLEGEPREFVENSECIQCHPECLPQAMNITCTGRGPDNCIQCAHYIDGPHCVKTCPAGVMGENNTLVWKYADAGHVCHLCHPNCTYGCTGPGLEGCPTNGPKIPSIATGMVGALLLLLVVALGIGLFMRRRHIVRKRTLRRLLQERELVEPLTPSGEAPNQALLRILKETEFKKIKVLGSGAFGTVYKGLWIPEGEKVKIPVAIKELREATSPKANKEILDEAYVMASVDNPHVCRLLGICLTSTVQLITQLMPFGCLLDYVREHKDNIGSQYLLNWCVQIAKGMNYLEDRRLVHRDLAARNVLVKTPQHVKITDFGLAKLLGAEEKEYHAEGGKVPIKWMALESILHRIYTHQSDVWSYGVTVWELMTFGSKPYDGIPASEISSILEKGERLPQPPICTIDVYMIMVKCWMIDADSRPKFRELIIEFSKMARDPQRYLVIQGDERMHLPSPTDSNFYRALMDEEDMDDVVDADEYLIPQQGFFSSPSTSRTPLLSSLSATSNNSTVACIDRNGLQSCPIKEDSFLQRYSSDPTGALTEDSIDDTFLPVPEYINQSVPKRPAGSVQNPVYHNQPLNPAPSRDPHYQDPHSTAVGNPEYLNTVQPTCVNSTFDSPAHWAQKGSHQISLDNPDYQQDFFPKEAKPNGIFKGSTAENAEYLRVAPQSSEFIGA

The experiment addresses Epidermal growth factor receptor (Homo sapiens, UniProt P00533). The note with it: at 10 µM.
Description: Inhibition of EGFR tyrosine kinase (unknown origin) using poly (Glu,Tyr) as substrate at 10 uM after 40 mins by Kinase-Glo Plus luminescence kinase assay
`CCOC(=O)C(=CNc1ccc2ncnc(Nc3ccc(O)cc3)c2c1)C(=O)OCC` registered an inhibition of 100%.

Compound `C#Cc1cccc(Nc2ncnc3ccc(NC=C(C(=O)OCC)C(=O)OCC)cc23)c1` showed an inhibition of 100%.

With `CCOC(=O)C(=CNc1ccc2ncnc(Nc3ccc(Cl)cc3)c2c1)C(=O)OCC`, the inhibition stood at 82%.

Turning to `CCOC(=O)/C(C#N)=C\Nc1ccc2ncnc(Nc3cccc(Br)c3)c2c1`, the inhibition is 100%.

With `CCOC(=O)C(=CNc1ccc2ncnc(Nc3cccc(Br)c3)c2c1)C(=O)OCC`, the inhibition stood at 100%.

`CCOC(=O)/C(C#N)=C\Nc1ccc2ncnc(Nc3cccc(O)c3)c2c1` had an inhibition of 100%.

`Nc1ccc2ncnc(Nc3ccccc3Cl)c2c1` yielded an inhibition of 90%.

Turning to `CCOC(=O)C(=CNc1ccc2ncnc(Nc3ccc(Cl)cc3Cl)c2c1)C(=O)OCC`, the inhibition is 90%.

Take `CCOC(=O)/C(C#N)=C\Nc1ccc2ncnc(Nc3ccc(O)cc3)c2c1`: the inhibition was 100%.

`CCOC(=O)/C(C#N)=C\Nc1ccc2ncnc(Nc3ccccc3CC)c2c1` registered an inhibition of 84%.

As to `CCOC(=O)C(=CNc1ccc2ncnc(Nc3ccccc3Cl)c2c1)C(=O)OCC`, the inhibition was determined as 100%.
